Counter-ions that a name gives are not always drawn.
The compounds below were run against T1, hMCH-1R (Homo sapiens, UniProt Q99705) (assay: MCH-1 receptor binding test (125I-MCH binding to membranes of hMCH-1R transfected CHO/Galpha16 cells)). Settings: membranes of CHO/Galpha16 cells stably transfected with human hMCH-1R, 100 pM 125I-MCH.
T1 construct: expressed in transfected cells; host or cells: CHO/Galpha16 cells (stably transfected), membranes
Method: After the incubation the reaction is filtered using a cell harvester through 0.5% PEI treated fibreglass filters (GF/B, Unifilter Packard). The membrane-bound radioactivity retained on the filter is then determined after the addition of scintillator substance (Packard Microscint 20) in a measuring device (TopCount of Packard). […] The analysis of the concentration binding curve is carried out on the assumption of one receptor binding site.

T1 sequence (Q99705 whole entry): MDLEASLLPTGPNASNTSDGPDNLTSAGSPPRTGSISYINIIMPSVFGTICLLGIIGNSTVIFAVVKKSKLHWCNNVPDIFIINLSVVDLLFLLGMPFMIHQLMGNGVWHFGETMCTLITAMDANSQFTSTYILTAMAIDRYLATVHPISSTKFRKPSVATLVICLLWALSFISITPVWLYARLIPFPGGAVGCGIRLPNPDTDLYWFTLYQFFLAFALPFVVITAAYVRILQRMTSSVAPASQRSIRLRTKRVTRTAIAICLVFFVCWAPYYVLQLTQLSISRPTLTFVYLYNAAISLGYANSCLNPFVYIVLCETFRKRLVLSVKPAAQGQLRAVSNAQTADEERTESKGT

Going from `c1ccc(COc2ccc(CCc3ccc(CN4CCOCC4)cc3)nn2)cc1` [Example 1.1, 4-{4-[2-(6-Benzyloxy-pyridazin-3-yl)-ethyl]benzyl}-morpholine] to `Fc1ccccc1COc1ccc(CCc2ccc(CN3CCCC3)cc2)nn1` [Example 12.2, 3-(2-Fluoro-benzyloxy)-6-[2-(4-pyrrolidin-1-ylmethyl-phenyl)-ethyl]-pyridazine trifluoroacetate], the IC50 rises from 0.004 µM to 0.013 µM (3.2-fold). The first is the more potent here.

First: c1ccc(COc2ccc(CCc3ccc(CN4CCCC4)cn3)nn2)cc1 [Example 4.1]
Second: CC1CCCCN1Cc1ccc(CCc2ccc(OCc3ccccc3)nn2)nc1 (centres unmarked) [Example 4.4]
The IC50 of the first is 2-fold higher: 0.016 µM for the first, 0.008 µM for the second.

First: c1ccc(COc2ccc(CCc3ccc(CNCc4cccnc4)cn3)nn2)cc1 [Example 4.2]
Second: OC1CCN(CCc2ccc(CCc3ccc(OCc4ccccc4)nn3)nc2)CC1 [Example 31.10]
The IC50 of the first is 5-fold higher: 0.02 µM for the first, 0.004 µM for the second.

Going from `COCCN(C)Cc1ccc(CCc2ccc(OCc3ccc(F)cc3)nn2)cc1` [Example 10.5] to `COC1CCN(Cc2ccc(C(=O)Cc3ccc(OCc4ccc(F)cc4)nn3)cc2)CC1` [Example 15.1, 2-[6-(4-Fluoro-benzyloxy)-pyridazin-3-yl]-1-[4-(4-methoxy-piperidin-1-ylmethyl)-phenyl]-ethanone], the IC50 rises from 0.004 µM to 0.009 µM (2.2-fold).

Going from `CN(Cc1ccccc1)c1ccc(CCc2ccc(CN3CCCC3)cc2)nn1` [Example 16.2, Benzyl-methyl-{6-[2-(4-pyrrolidin-1-ylmethyl-phenyl)-ethyl]-pyridazin-3-yl}-amine] to `OC1CCN(Cc2ccc(CCc3ccc(OCC4CCCCO4)nn3)cc2)CC1` (centres unmarked) [Example 22.2, 1-(4-{2-[6-(Tetrahydro-pyran-2-ylmethoxy)-pyridazin-3-yl]-ethyl}-benzyl)-piperidin-4-ol], the IC50 falls from 0.59 µM to 0.136 µM (4.3-fold).

`CC(=O)N1CCN(CCOc2ccc(CCc3ccc(OCc4ccccc4)nn3)nc2)CC1` [Example 29.10] gave an IC50 of 0.019 µM.
